Laboratory results from ChEMBL document CHEMBL4303087, “Broad anti-coronaviral activity of FDA approved drugs against SARS-CoV-2 in vitro and SARS-CoV in vivo” (2020).
Values joined by “and” are separate entries in the source; they are usually repeats but may differ in a detail not shown here. Equal values may be shown once. Where a name gives a salt, the structure may show the parent alone. Active and inactive are the calls of the source. No cut-off for these calls is given here.

Tests used:
in vitro [1] = conditions: monkey, Vero E6 cells, Selectivity index
SARS-CoV-2 [2] = experiment: microbe, parasite or virus in culture; type: functional, organism-based, Chlorocebus sabaeus, Vero C1008
Vero C1008 = conditions: chlorocebus sabaeus, vero c1008, 72 h
in vitro [3] = conditions: monkey, Vero E6 cells, Selectivity index; remark: listed apart in the source
SARS-CoV-2 [4] = experiment: microbe, parasite or virus in culture; type: functional, organism-based, Chlorocebus sabaeus, Vero C1008; remark: listed apart in the source
SARS-CoV-2 [5] = experiment: Reduction of viral mRNA (RdRp and N) in SARS-CoV-2 infected Vero E6 cells (at MOI 0.1) after 24 hrs; type: functional, organism-based; conditions: Chlorocebus sabaeus; Vero C1008
SARS-CoV = experiment: Reduction of SARS spike protein-mediated cell fusion using BlaM pseudovirus assay system in BSC1 cells; type: functional, Chlorocebus aethiops, BSC-1
SARS-CoV-2 [6] = experiment: Reduction of SARS-CoV-2 infection by time of addition assay, with 50uM hydroxychloroquine administered at -2hrs, 0 hrs and 2hrs post-infection; type: functional, organism-based; conditions: Chlorocebus sabaeus, Vero C1008
[7] = Severe acute respiratory syndrome coronavirus 2, Vero C1008, 72 h

| SMILES | selectivity ratio (in vitro [1]) | IC50 (SARS-CoV-2 [2]; [7]) | CC50 (Vero C1008) | selectivity ratio (in vitro [3]) | IC50 (SARS-CoV-2 [4]; [7]) | also measured |
| --- | --- | --- | --- | --- | --- | --- |
| O=C1NCN(c2ccccc2)C12CCN(CCCC(c1ccc(F)cc1)c1ccc(F)cc1)CC2 | 5.71 | 5.32 µM | 30.3 µM | 9.61 | 3.16 µM | – |
| CCN(CC)Cc1cc(Nc2ccnc3cc(Cl)ccc23)ccc1O [AMODIAQUINE HYDROCHLORIDE] | 6.97 | 4.94 µM | – | 13.3 | 2.59 µM | IC50 (SARS-CoV-2 [2]; vero c1008): 5.64 µM; CC50 (Vero C1008; 72 h): 34.4 µM and > 38.6 µM; IC50 (SARS-CoV-2 [4]; vero c1008): 2.36 µM |
| CCN(CC)CCCC(C)Nc1ccnc2cc(Cl)ccc12.O=P(O)(O)O.O=P(O)(O)O (stereo not drawn) [CHLOROQUINE PHOSPHATE] | – | 46.8 µM | – | – | 42 µM | Activity (SARS-CoV-2 [5]): Active; Inhibition (SARS-CoV): >90% |
| CN(C)CCCN1c2ccccc2Sc2ccc(Cl)cc21.Cl [CHLORPROMAZINE HYDROCHLORIDE] | – | 4.03 µM | 11.9 µM | – | 3.14 µM | Inhibition (SARS-CoV): >90% |
| CC[C@H]1CN2CCc3cc(OC)c(OC)cc3[C@@H]2C[C@@H]1C[C@H]1NCCc2cc(OC)c(OC)cc21 [EMETINE DIHYDROCHLORIDE HYDRATE] | – | – | < 0.39 µM | – | – | – |
| Nc1ccn([C@@H]2O[C@H](CO)[C@@H](O)C2(F)F)c(=O)n1 [GEMCITABINE HYDROCHLORIDE] | – | – | 23.2 µM | – | – | – |
| CCN(CCO)CCCC(C)Nc1ccnc2cc(Cl)ccc12 (stereo not drawn) [HYDROXYCHLOROQUINE SULFATE] | > 4.48 | 11.2 µM | > 50 µM | > 5.43 | 9.21 µM | Activity (SARS-CoV-2 [6]; time 0.0 hr): Active; Activity (SARS-CoV-2 [6]; time 2.0 hr): Active; Activity (SARS-CoV-2 [6]; time -2.0 hr): Active; Activity (SARS-CoV-2 [5]): Active |
| Cc1ccc(NC(=O)c2ccc(CN3CCN(C)CC3)cc2)cc1Nc1nccc(-c2cccnc2)n1 [IMATINIB MESYLATE] | – | – | > 30.9 µM | – | – | – |
| OC(c1cc(C(F)(F)F)nc2c(C(F)(F)F)cccc12)C1CCCCN1 (stereo not drawn) [MEFLOQUINE HYDROCHLORIDE] | 2.3 | 8.06 µM | 18.5 µM | 2.61 | 7.11 µM | – |
| CC(CN1c2ccccc2Sc2ccccc21)N(C)C (stereo not drawn) [PROMETHAZINE HYDROCHLORIDE] | > 4.08 | 10.4 µM | > 42.6 µM | > 4.62 | 9.21 µM | – |
| CC/C(=C(\c1ccccc1)c1ccc(OCCN(C)C)cc1)c1ccccc1 [TAMOXIFEN CITRATE] | – | – | 38 µM | – | – | – |
| CC(C)N1CCN(c2ccc(OCC3COC(Cn4cncn4)(c4ccc(Cl)cc4Cl)O3)cc2)CC1 (stereo not drawn) [TERCONAZOLE] | 2.57 | 16.1 µM | 41.5 µM | 3.48 | 11.9 µM | – |
| CCSc1ccc2c(c1)N(CCCN1CCN(C)CC1)c1ccccc1S2 [THIETHYLPERAZINE MALEATE] | 2.29 | 8.02 µM | 18.4 µM | 2.59 | 7.09 µM | – |
| CN(C)CCOc1ccc(/C(=C(/CCCl)c2ccccc2)c2ccccc2)cc1 [TOREMIFENE CITRATE] | 1.81 | 11.3 µM | 20.5 µM | 4.3 | 4.77 µM | – |
| CCN(CC)CCOc1ccc(C(O)(Cc2ccc(Cl)cc2)c2ccc(C)cc2)cc1 (stereo not drawn) [TRIPARANOL] | 3.31 | 6.41 µM | 21.2 µM | 4.53 | 4.68 µM | – |
